A melting point compilation (Tetko et al.)

| SMILES | melting point [°C] |
| --- | --- |
| CNS(=O)(=O)c1ccc(-c2cccs2)c(C(=O)O)c1 | 164 to 166 |
| Cc1cc(C)n(N)c(=O)c1C#N | 164 to 166 |
| NCC(O)COc1cccc(C(F)(F)F)c1 (centres undefined) | 66 to 68 |
| CCN(C)C(=O)c1cccc(C(=O)O)c1 | 102 to 104 |
| NC(=O)c1cc(N)nc2ccccc12 | 199 to 201 |
| O=C(O)c1cnoc1 | 99 to 101 |
| O=C(CCl)NCc1cccc(C(=O)NC2CC2)c1 | 137 to 139 |
| COC(=O)c1cc(S(=O)(=O)Cl)c(Br)cc1F | 105 to 107 |
| O=C(O)c1occc1CN1C(=O)Cc2ccccc21 | 203 to 205 |
| O=C(O)C=Cc1ccc(S(=O)(=O)N2CCc3ccccc32)cc1 | 199 to 201 |
| O=C(O)c1c[nH]c(=O)[nH]1 | 232 to 236 |
| O=C(O)c1nc(OCC2CC2)c2ccccc2n1 | 109 to 111 |
| Nc1cccc(NC(=O)CCn2ccnc2)c1 | 125 to 127 |
| CCCc1c(C(=O)O)cnn1C1CCCC1 | 113 to 115 |
| Cc1nn(Cc2cccc(Br)c2)cc1C(=O)O | 164 to 166 |
| CC(C)c1n[nH]c(C(=O)O)c1Br | 195 to 197 |
| CN(C)c1ccnc(N)c1 | 113 to 115 |
| Cc1cc2cc[nH]c(=O)c2n1C | 224 to 226 |
| COC(=O)c1cc2c(OC(F)F)cccc2[nH]1 | 144 to 146 |
| Cc1cc(C(=O)O)c2c(C)nn(C)c2n1 | 262 to 264 |
| CCOC(=O)c1c(NC(=O)CCl)sc(-c2ccccc2)c1C | 106 to 108 |
| CC(C)c1noc2nc(-c3cccnc3)cc(C(=O)O)c12 | 279 to 281 |
| COC(=O)c1occc1CBr | 50 to 52 |
| CCCNCC(=O)Nc1ccc(Cl)cc1 | 44 to 46 |
| COc1ccc(S(N)(=O)=O)cc1OC | 135 to 137 |
| N#Cc1ccnc(S)c1 | 227 to 229 |

| SMILES | melting point [°C] |
| --- | --- |
| NS(=O)(=O)c1ccc(NC(=O)CCl)cc1 | 156 to 158 |
| COC(=O)c1cc(CCl)c(C)s1 | 54 to 56 |
| COC(=O)c1cn(C)c(-c2ccc(N)cc2)c1C(=O)OC | 181 to 183 |
| CC(=O)c1ccc(S(=O)(=O)NCc2ccc(F)cc2)cc1 | 149 to 151 |
| O=C(CCl)NCc1cn(Cc2ccccc2)nc1-c1ccccc1 | 82 to 84 |
| COCCNC(C)(C)CO | 44 to 46 |
| Cn1nnnc1-c1cccc(S(N)(=O)=O)c1 | 168 to 170 |
| CCN(CC)S(=O)(=O)c1cccc(C(=O)NCC(=O)O)c1 | 69 to 71 |
| COCCOc1cccc(C(=O)O)c1 | 80 to 82 |
| Cc1ccc(-c2nc(C)c(C(C)N)s2)cc1 (centres undefined) | 57 to 59 |
| NCCCNC(=O)c1cccc(Br)c1 | 52 to 54 |
| N#Cc1ccc(S(N)(=O)=O)cc1Cl | 157 to 159 |
| COC(=O)c1ccc(S(=O)(=O)Cl)cc1 | 65 to 70 |
| O=C(O)c1cccc(F)c1I | 148 to 150 |
| COC(=O)C(=O)CC(=O)c1ccc(OC)cc1OC | 101 to 103 |
| CC(C)(C)NC(=O)c1ccccc1C(=O)O | 146 to 148 |
| Nc1cccc(N2CCCCC2=O)c1 | 144 to 146 |
| NNC(=O)CCSc1ccc(F)cc1 | 98 to 100 |
| Nc1nc(-c2nc3ccccc3s2)cs1 | 248 to 250 |
| O=C1CCCOc2c1ccc(Cl)c2Cl | 103 to 105 |
| Nc1ccccc1-c1nc(C2CC2)n[nH]1 | 213 to 215 |
| O=C(O)c1ccc2ccc(Cl)cc2n1 | 179 to 181 |
| CC(C)Nc1nc(COc2ccccc2)no1 | 86 to 88 |
| CC(=O)c1c(C)oc(N)c1C#N | 241 to 243 |
| ClCc1nc(-c2cccnc2)no1 | 87 to 89 |
| COC(=O)c1cc([N+](=O)[O-])cc(S(C)(=O)=O)c1 | 134 to 136 |

| SMILES | melting point [°C] |
| --- | --- |
| Cc1cc(C(=O)O)ccc1N1CCNC1=O | 279 to 281 |
| CC(C)C(=O)Nc1cc(C(=O)O)c(F)cc1F | 233 to 235 |
| Nc1nc(-c2cccc(O)c2)cs1 | 151 to 153 |
| CC(C)S(N)(=O)=O | 44 to 46 |
| CC(=O)N1CCCc2cc(C(=O)O)ccc21 | 184 to 186 |
| CCOC(=O)N1CCNC(=O)CC1 | 103 to 105 |
| CC(=O)Nc1ccc(CCO)cc1 | 106 to 108 |
| N#Cc1cccc(C(=O)NNC(=O)CCl)c1 | 199 to 201 |
| CC1(c2ccc(Cl)c(Cl)c2)NC(=O)NC1=O (centres undefined) | 203 to 207 |
| CC(=O)c1ccc(OC2CCOCC2)cc1 | 72 to 74 |
| COC(=O)c1ccc(S)cc1 | 53 to 55 |
| O=C(CBr)c1cccc(N2CCCC2=O)c1 | 83 to 85 |
| NC(=NO)c1ccc(N2CCC(O)CC2)cc1 | 169 to 171 |
| Nc1ccccc1N1CCCC1=O | 98 to 102 |
| O=C1CCS(=O)(=O)c2ccc(Br)cc21 | 146 to 148 |
| CC(C)(C)OC(=O)c1cc(C(=O)O)nn1-c1ccccc1 | 259 to 261 |
| NC(=O)Cn1cc([N+](=O)[O-])cn1 | 167 to 169 |
| CC(C)(C)n1cc(C#N)cc1NC(=O)OCC(F)(F)F | 147 to 149 |
| O=C(NO)C12CC3CC(CC(C3)C1)C2 | 110 to 112 |
| Cc1nn(-c2ccc(Cl)cc2)c(C)c1C(=O)O | 219 to 221 |
| C=C(C)CNC(=S)NN | 86 to 88 |
| N#CCC(=O)NC1CC1 | 87 to 90 |
| N=C1NCCO1 | 69 to 71 |
| Nc1ccc(Oc2ncccn2)cc1 | 132 to 134 |
| Cc1ccc(CC(=O)NO)cc1 | 155 to 157 |
| Cc1cc(C=O)c(C)n1-c1ccc(Cl)cc1 | 123 to 125 |

| SMILES | melting point [°C] |
| --- | --- |
| Cc1ccc(C(=O)c2cccnc2)cc1 | 71 to 73 |
| O=C1CCc2cc(Br)c(F)cc2N1 | 210 to 212 |
| CCCn1c(N)cc(=O)n(C)c1=O | 166 to 168 |
| ClCc1cc2c(cc1Br)OCCO2 | 117 to 119 |
| OCCc1c[nH]nc1C(F)(F)F | 90 to 92 |
| COC(=O)c1ccc(Cl)nc1C | 30 to 32 |
| Nc1ccc(Cc2nnn[nH]2)cc1 | 174 to 176 |
| CCC(=O)NN | 24 to 26 |
| CC(C(=O)O)N(C)c1nccn2cnnc12 (centres undefined) | 153 to 155 |
| O=[N+]([O-])c1ccn(CCBr)n1 | 50 to 52 |
| COC(=O)c1c[nH]c(=O)c(N)c1 | 209 to 211 |
| CC(Cl)C(=O)NC1CC1 (centres undefined) | 67 to 71 |
| Cc1ccc2nc(CO)cc(=O)n2c1 | 171 to 173 |
| CN(C)c1nnc(S)s1 | 178 to 180 |
| CCc1cc(=O)[nH]c(-c2cccc(N)c2)n1 | 139 to 141 |
| O=C1CNC(=O)N1CCBr | 134 to 136 |
| COc1ccc(-c2cc(C(=O)O)c3sc(N4CCCCC4)nc3n2)cc1OC | 284 to 286 |
| O=C1N(Cc2ccccc2)CCN1S(=O)(=O)Cl | 112 to 114 |
| Nc1cccc(-c2nnc3n2CCCCC3)c1 | 200 to 202 |
| Cc1nc(Cl)c2c(n1)CCCC2 | 30 to 32 |
| NS(=O)(=O)c1ccc2c(c1)oc(=O)n2CC(=O)O | 168 to 170 |
| Cc1ccc(-c2cc(C(=O)O)c3c(C)noc3n2)c(C)c1 | 222 to 224 |
| O=C(Nc1ccc(Br)cc1)C1CCNCC1 | 209 to 211 |
| Nc1ccc(S(=O)(=O)N2CCCC2)cc1 | 164 to 166 |
| NC(=S)Nc1ccc(Cl)nc1 | 182 to 184 |
| Cc1nnc(-c2cccc(N)c2)n1C | 189 to 191 |
